Positions of bridges follow the written chain, without caps; N, C: chain ends. Non-standard residues stand in square brackets, D forms with d. No end group written: not given here. Deg = CCC(N)(CC)C(=O)O; Aib = CC(C)(N)C(=O)O
Legend:
Assay type in all cases: cell-based
[1] = tested on: ECV304; experiment: Tube-like-structure (TLS) formation on Matrigel; conditions: 24 hours
Method: Matrigel (350 ul) was placed into each well of a 24-well culture plate at 4° C. and was allowed to polymerize by incubation at 37° C. for 30 min. ECV304 (1.5×10^4) were seeded on the Matrigel in 500 ul DMEM supplemented with 10% FBS. MuJ-7 at four different concentrations of 0.25×, 0.5×, ×, & 5.0× were added and. the plate incubated at 37° C. for 24 hour. “×” denotes normal concentration of MuJ-7 where molar concentration of individual peptides was 10^−8 M for VIP2, BOM1, SP1, VIP3 and SOM2 and 10^−7 M for VIP1 and 10^−9 M for SOM1. […] Percent inhibition in tube area was determined with reference to untreated cells.
Matrigel (350 ul) was placed into each well of a 24-well culture plate at 4° C. and was allowed to polymerize by incubation at 37° C. for 30 min. ECV304 (1.5×10^4) were seeded on the Matrigel in 500 ul DMEM supplemented with 10% FBS. […] Percent inhibition in tube length was determined with reference to untreated cells.
Matrigel (350 ul) was placed into each well of a 24-well culture plate at 4° C. and was allowed to polymerize by incubation at 37° C. for 30 min. ECV304 (1.5×10^4) were seeded on the Matrigel in 500 ul DMEM supplemented with 10% FBS. Individual peptides of the composition MuJ-7 at three different concentrations each of N/10, N, and 10N were added and the plate incubated at 37° C. for 24 hours. […] Percent inhibition in tube length was determined with reference to Control. Similarly, three different concentrations of N/10, N, and 10N of MuJ-7 were added to the well and the plate incubated at 37° C. for 24 hours. Percent inhibition in tube length was determined with reference to Control as described previously (Table 10).

[2] = tested on: ECV.304 cells; experiment: MTT assay, inhibition of proliferation of endothelial cells ECV.304; conditions: 72 hours (Table 2)
Method: 150 μl of medium was added to the wells of a 96-well tissue culture plate (Nunc, Denmark) followed by 30 μl of cell suspension. The plate was left in incubator (37° C., 5% CO2) overnight. Each of the seven peptides of the combination MuJ-7 were added at three molar concentrations of 10^−7M, 10^−8M and 10^−9M. 20 μl of MuJ-7 at three concentrations of N/10, N and 10N was added to marked wells of the 96-well plate. The value of N for each of the individual peptides was 10^−8M for VIP2, BOM1, SP1, VIP3, and SOM2 and 10^−7M for VIP1, and 10^−9M for SOM1. Each concentration was plated in triplicate. 20 μl of medium alone was added to control wells while wells without cells served as blanks. A total volume of 200 μl was ensured in each well and the plate was left in an incubator (37° C., 5% CO2). After 72 hours of incubation an MTT assay was performed and percentage inhibition in proliferation of treated cells was calculated with respect to control cells.
150 μl of medium was added to the wells of a 96-well tissue culture plate (Nunc, Denmark) followed by 30 μl of cell suspension. The plate was left in incubator (37° C., 5% CO2) overnight. Novel peptides shown below were incubated with cells at concentration range of 10^−7 to 10^−9 M (except DT71 at concentration range 10^−8 to 10^−10 M). Each concentration was plated in triplicates. 20 μl of medium alone was added to control wells while wells without cells served as blanks. A total volume of 200 μl was ensured in each well and plate was left in incubator (37° C., 5% CO2). After 72 hours of incubation an MTT assay was performed and percentage inhibition in proliferation of treated cells was calculated with respect to control cells.

[3] = tested on: endothelial cells ECV.304; experiment: Migration assay across 8 μm polycarbonate filter transwell inserts; conditions: 24 hours (Table 4)
Method: Polycarbonate filter transwell inserts (24 well size) with 8 μm pores (Nunc, Denmark) were used for the migration assay. ECV304 (10^4 cells/200 ul DMEM containing 0.1% BSA) was added to the upper chamber. The lower chamber contained 600 ul of DMEM with 0.1% BSA. Individual peptides of the composition MuJ-7 at six different concentrations each of N/100, N/10, N, 10N, 100N and 1000N were added directly to the upper well and the plate incubated at 37° C. for 24 hours. The cells migrated to the lower chamber were viewed randomly at five different phase-contrast microscopic fields and the total number of cells counted using Video Pro 32 Image Analysis system. Percent inhibition in migration was determined with reference to the Control. Similarly, […] different concentrations of N/100, N/10, N, 10N, 100N and 1000N of MuJ-7 were added directly to the upper well and the plate incubated at 37° C. for 24 hours. The cells migrated to the lower chamber were counted as described above.
Polycarbonate filter trasnwell inserts (24 well size) with 8 μm pores (Nuno, Denmark) were used for the migration assay. ECV304 (10^4 cells/200 ul DMEM containing 0.1% BSA) was added to the upper chamber. The lower chamber contained 600 ul of DMEM with 0.1% BSA. […] The sequence of each of the peptides added are described above. The cells migrated to the lower chamber were viewed randomly at five different phase-contrast microscopic fields and the total number of cells counted using Video Pro 32 Image Analysis system. Percent inhibition in migration was determined with reference to Control. […]

[4] = analog at optimum concentration −8M

Row | Substance | INHIBITION OF TUBE LENGTH ([1]; peptide −8M) | PERCENT INHIBITION OF PROLIFERATION ([2]; ECV304, 10^−7M) | PERCENT INHIBITION OF PROLIFERATION ([2]; ECV304, 10^−8M) | PERCENT INHIBITION OF PROLIFERATION ([2]; ECV304, 10^−9M) | PERCENT INHIBITION MIGRATION [3, 4] | INHIBITION OF TUBE LENGTH ([1]; peptide −9M) | PERCENT INHIBITION OF PROLIFERATION ([2]; ECV304, 10^−10M) | PERCENT INHIBITION MIGRATION ([3]; analog at optimum concentration −9M)
1 | Leu-Met-Tyr-Pro-Thr-Tyr-D-Leu-Lys-OH (LMYPTY[dL]K-OH; N-terminus assumed; SMILES CSCC[C@H](NC(=O)[C@@H](N)CC(C)C)C(=O)N[C@@H](Cc1ccc(O)cc1)C(=O)N1CCC[C@H]1C(=O)N[C@H](C(=O)N[C@@H](Cc1ccc(O)cc1)C(=O)N[C@H](CC(C)C)C(=O)N[C@@H](CCCCN)C(=O)O)[C@@H](C)O) [DT-14] | 24.3% | 17.0% | 6.0% | 20.5% | 77.3% |  |  | 
2 | Leu-Met-Tyr-Pro-Thr-D-Tyr-Leu-Lys-OH (LMYPT[dY]LK-OH; N-terminus assumed; SMILES CSCC[C@H](NC(=O)[C@@H](N)CC(C)C)C(=O)N[C@@H](Cc1ccc(O)cc1)C(=O)N1CCC[C@H]1C(=O)N[C@H](C(=O)N[C@H](Cc1ccc(O)cc1)C(=O)N[C@@H](CC(C)C)C(=O)N[C@@H](CCCCN)C(=O)O)[C@@H](C)O) [DT-13] | 16.2% | 22.6% | 20.3% | 18.4% | 89.7% |  |  | 
3 | D-Leu-Met-Tyr-Pro-Thr-Tyr-Deg-Lys-OH ([dL]MYPTY[Deg]K-OH; N-terminus assumed; SMILES CCC(CC)(NC(=O)[C@H](Cc1ccc(O)cc1)NC(=O)[C@@H](NC(=O)[C@@H]1CCCN1C(=O)[C@H](Cc1ccc(O)cc1)NC(=O)[C@H](CCSC)NC(=O)[C@H](N)CC(C)C)[C@@H](C)O)C(=O)N[C@@H](CCCCN)C(=O)O) [DT-19] | 37.8% | 11.9% | 7.3% | 21.0% | 80.4% |  |  | 
4 | [dR]PKP[Aib]Q[dW]F[dW][Aib]L-NH2 [DT-34] | 0% | 12.1% | 15.6% | 14.3% | 53.6% |  |  | 
5 | LM[dY]PTY[dL]K-OH [DT-15] | 0% | 20.4% | 13.2% | 20.0% | 73.2% |  |  | 
6 | [dL]MQWF[Aib]-NH2 [DT-33] | 13.5% | 8.7% | 15.8% | 13.9% | 41.4% |  |  | 
7 | Ala-Aib-Cys-Lys-Asn-Phe-Phe-D-Trp-Lys-Thr-Phe-Thr-Ser-Cys (A[Aib]CKNFF[dW]KTFTSC; ends and bridges not checked) [DT-62B] | 0% | 14.0% | 3.8% | 12.8% | 8.5% |  |  | 
8 | [dF]QWAV[Aib]HL-NH2 [DT-24] | 16.2% | 6.4% | 9.8% | 10.7% | 0% |  |  | 
9 | Aib-Met-Tyr-Pro-Thr-Tyr-Aib-Lys-OH ([Aib]MYPTY[Aib]K-OH; N-terminus assumed; SMILES CSCC[C@H](NC(=O)C(C)(C)N)C(=O)N[C@@H](Cc1ccc(O)cc1)C(=O)N1CCC[C@H]1C(=O)N[C@H](C(=O)N[C@@H](Cc1ccc(O)cc1)C(=O)NC(C)(C)C(=O)N[C@@H](CCCCN)C(=O)O)[C@@H](C)O) [DT-11] | 3.6% | 16.7% | 18.7% | 19.9% | 82.5% |  |  | 
10 | Aib-Met-Tyr-Pro-Thr-Tyr-Deg-Lys-OH ([Aib]MYPTY[Deg]K-OH; N-terminus assumed; SMILES CCC(CC)(NC(=O)[C@H](Cc1ccc(O)cc1)NC(=O)[C@@H](NC(=O)[C@@H]1CCCN1C(=O)[C@H](Cc1ccc(O)cc1)NC(=O)[C@H](CCSC)NC(=O)C(C)(C)N)[C@@H](C)O)C(=O)N[C@@H](CCCCN)C(=O)O) [DT-18] | 0% | 23.3% | 10.9% | 14.4% | 73.2% |  |  | 
11 | Ala-Aib-Cys-Lys-Asn-Phe-Phe-D-Trp-Lys-Thr-Phe-Thr-Ser-Cys (3-14 Disulphide bond) (A[Aib]CKNFF[dW]KTFTSC; disulfide 3-14) [DT-62A] | 44.1% | 11.7% | 20.1% | 25.7% | 62.2% |  |  | 
12 | D-Leu-Met-Tyr-Pro-Thr-Tyr-D-Leu-Lys-OH ([dL]MYPTY[dL]K-OH; N-terminus assumed; SMILES CSCC[C@H](NC(=O)[C@H](N)CC(C)C)C(=O)N[C@@H](Cc1ccc(O)cc1)C(=O)N1CCC[C@H]1C(=O)N[C@H](C(=O)N[C@@H](Cc1ccc(O)cc1)C(=O)N[C@H](CC(C)C)C(=O)N[C@@H](CCCCN)C(=O)O)[C@@H](C)O) [DT-16] | 18.9% | 24.0% | 24.7% | 37.9% | 90.07% |  |  | 
13 | Aib-Met-Gln-Trp-Phe-Aib-NH2 ([Aib]MQWF[Aib]-NH2; N-terminus assumed; SMILES CSCC[C@H](NC(=O)C(C)(C)N)C(=O)N[C@@H](CCC(N)=O)C(=O)N[C@@H](Cc1c[nH]c2ccccc12)C(=O)N[C@@H](Cc1ccccc1)C(=O)NC(C)(C)C(N)=O) [DT-31] | 17.1% | 1.3% | 14.1% | 6.1% | 0% |  |  | 
14 | [dF]QWAV[Aib]HI-NH2 [DT-27] | 29.7% | 14.3% | 11.9% | 6.7% | 0% |  |  | 
15 | D-Phe-Cys-Tyr-D-Trp-Lys-Thr-Aib-Thr-NH2 (XCYXKTXT; D-amino acids, Aib, C-terminal amide) [DT-71] |  |  | 14.6% | 12.1% |  | 9.9% | 9.4% | 68.2%

From patent US6492330B1, “Antiangiogenic drugs” (National Institute of Immunology, priority 1996, dated 2002)
